Source: patent US7582645B2, “Pyrimidine derivatives for treatment of hyperproliferative disorders” (Bayer Pharmaceuticals Corporation, priority 2003, dated 2009)

system: HCT116 cells; assay: HCT116 cytotoxic activity assay (Alamar Blue, 72 h); format: cell-based; conditions: Homo sapiens, HCT-116, 72 h compound exposure, greater than 500 nM but less than or equal to 2 μM
Method: Representative compounds of this invention were tested for cytotoxicity using the above-described assay procedure with the following results: […]

| SMILES | IC50 [nM] |
| --- | --- |
| N#Cc1cc(Oc2ccc(Nc3cc(-c4ccc(F)cc4F)nc(N)n3)cc2)ccn1 [Example 247, 4-(4-{[2-amino-6-(2,4-difluorophenyl)pyrimidin-4-yl]amino}phenoxy)pyridine-2-carbonitrile] | 500 to 2000 |
| N#Cc1cc(Oc2ccc(Nc3cc(-c4cccc(CO)c4)nc(N)n3)cc2)ccn1 [Example 248, 4-[4-({2-amino-6-[3-(hydroxymethyl)phenyl]pyrimidin-4-yl}amino)phenoxy]pyridine-2-carbonitrile] | 500 to 2000 |
| NC(=O)c1cc(Oc2ccc(Nc3cc(-c4cccc(F)c4)nc(N)n3)cc2)ccn1 [Example 256, 4-(4-{[2-amino-6-(3-fluorophenyl)pyrimidin-4-yl]amino}phenoxy) pyridine-2-carboxamide] | 500 to 2000 |
| NC(=O)c1cc(Oc2ccc(Nc3cc(-c4ccc(Cl)cc4)nc(N)n3)cc2)ccn1 [Example 257, 4-(4-{[2-amino-6-(4-chlorophenyl)pyrimidin-4-yl]amino}phenoxy) pyridine-2-carboxamide] | 500 to 2000 |
| NC(=O)c1cc(Oc2ccc(Nc3cc(-c4cccc(C(F)(F)F)c4)nc(N)n3)cc2)ccn1 [Example 258, 4-[4-({2-amino-6-[3-(trifluoromethyl)phenyl]pyrimidin-4-yl}amino)phenoxy]pyridine-2-carboxamide] | 500 to 2000 |

same assay, conditions: Homo sapiens, HCT-116, 72 h compound exposure, greater than 2 μM

| SMILES | IC50 [nM] |
| --- | --- |
| N#Cc1cc(Oc2ccc(Nc3cc(-c4ccc(Cl)c(Cl)c4)nc(N)n3)cc2)ccn1 [Example 253, 4-(4-{[2-amino-6-(3,4-dichlorophenyl)pyrimidin-4-yl]amino}phenoxy)pyridine-2-carbonitrile] | > 2000 |
| NC(=O)c1cc(Oc2ccc(Nc3cc(-c4cccs4)nc(N)n3)cc2)ccn1 [Example 255, 4-(4-{[2-amino-6-(2-thienyl)pyrimidin-4-yl]amino}phenoxy) pyridine-2-carboxamide] | > 2000 |
| NC(=O)c1cc(Oc2ccc(Nc3cc(-c4ccc(-c5ccccc5)c(F)c4)nc(N)n3)cc2)ccn1 [Example 260, 4-(4-{[2-amino-6-(2-fluorobiphenyl-4-yl)pyrimidin-4-yl]amino}phenoxy) pyridine-2-carboxamide] | > 2000 |
| NC(=O)c1cc(Oc2ccc(Nc3cc(-c4cccc(CO)c4)nc(N)n3)cc2)ccn1 [Example 265, 4-[4-({2-amino-6-[3-(hydroxymethyl)phenyl]pyrimidin-4-yl}amino)phenoxy]pyridine-2-carboxamide] | > 2000 |
| CC(C)c1cccc(-c2cc(Nc3ccc(Oc4ccnc(C(N)=O)c4)cc3)nc(N)n2)c1 [Example 270, 4-(4-{[2-amino-6-(3-isopropylphenyl)pyrimidin-4-yl]amino}phenoxy) pyridine-2-carboxamide] | > 2000 |
| NC(=O)c1cc(Oc2ccc(Nc3cc(-c4ccc(Cl)c(Cl)c4)nc(N)n3)cc2)ccn1 [Example 272, 4-(4-{[2-amino-6-(3,4-dichlorophenyl)pyrimidin-4-yl]amino}phenoxy)pyridine-2-carboxamide] | > 2000 |
| N#Cc1cc(Oc2ccc(Nc3cc(-c4cccc(OC(F)(F)F)c4)nc(N)n3)cc2)ccn1 [Example 274, 4-[4-({2-amino-6-[3-(trifluoromethoxy)phenyl]pyrimidin-4-yl}amino)phenoxy]pyridine-2-carbonitrile] | > 2000 |

same assay, conditions: Homo sapiens, HCT-116, 72 h compound exposure, less than or equal to 500 nM

| SMILES | IC50 [nM] |
| --- | --- |
| Cc1ccc(-c2cc(Nc3ccc(Oc4ccnc(C#N)c4)cc3)nc(N)n2)cc1 [Example 249, 4-(4-{[2-amino-6-(4-methylphenyl)pyrimidin-4-yl]amino}phenoxy) pyridine-2-carbonitrile] | ≤ 500 |
| Cc1cccc(-c2cc(Nc3ccc(Oc4ccnc(C#N)c4)cc3)nc(N)n2)c1 [Example 250, 4-(4-{[2-amino-6-(3-methylphenyl)pyrimidin-4-yl]amino}phenoxy) pyridine-2-carbonitrile] | ≤ 500 |
| N#Cc1cc(Oc2ccc(Nc3cc(-c4ccsc4)nc(N)n3)cc2)ccn1 [Example 251, 4-(4-{[2-amino-6-(3-thienyl)pyrimidin-4-yl]amino}phenoxy) pyridine-2-carbonitrile] | ≤ 500 |
| Cc1ccc(-c2cc(Nc3ccc(Oc4ccnc(C#N)c4)cc3)nc(N)n2)cc1N [Example 252, 4-(4-{[2-amino-6-(3-amino-4-methylphenyl)pyrimidin-4-yl]amino}phenoxy)pyridine-2-carbonitrile] | ≤ 500 |
| NC(=O)c1cc(Oc2ccc(Nc3cc(-c4cccc(N)c4)nc(N)n3)cc2)ccn1 [Example 254, 4-(4-{[2-amino-6-(3-aminophenyl)pyrimidin-4-yl]amino}phenoxy) pyridine-2-carboxamide] | ≤ 500 |
| CCCCc1ccc(-c2cc(Nc3ccc(Oc4ccnc(C(N)=O)c4)cc3)nc(N)n2)cc1 [Example 259, 4-(4-{[2-amino-6-(4-butylphenyl)pyrimidin-4-yl]amino}phenoxy) pyridine-2-carboxamide] | ≤ 500 |
| CCc1cccc(-c2cc(Nc3ccc(Oc4ccnc(C(N)=O)c4)cc3)nc(N)n2)c1 [Example 261, 4-(4-{[2-amino-6-(3-ethylphenyl)pyrimidin-4-yl]amino}phenoxy) pyridine-2-carboxamide] | ≤ 500 |
| COc1ccc(C(C)C)cc1-c1cc(Nc2ccc(Oc3ccnc(C(N)=O)c3)cc2)nc(N)n1 [Example 262, 4-(4-{[2-amino-6-(5-isopropyl-2-methoxyphenyl)pyrimidin-4-yl]amino}phenoxy)pyridine-2-carboxamide] | ≤ 500 |
| Cc1ccccc1-c1cc(Nc2ccc(Oc3ccnc(C(N)=O)c3)cc2)nc(N)n1 [Example 263, 4-(4-{[2-amino-6-(2-methylphenyl)pyrimidin-4-yl]amino}phenoxy) pyridine-2-carboxamide] | ≤ 500 |
| NC(=O)c1cc(Oc2ccc(Nc3cc(-c4ccc(F)cc4F)nc(N)n3)cc2)ccn1 [Example 264, 4-(4-{[2-amino-6-(2,4-difluorophenyl)pyrimidin-4-yl]amino}phenoxy)pyridine-2-carboxamide] | ≤ 500 |
| CC(C)c1ccc(-c2cc(Nc3ccc(Oc4ccnc(C(N)=O)c4)cc3)nc(N)n2)cc1 [Example 266, 4-(4-{[2-amino-6-(4-isopropylphenyl)pyrimidin-4-yl]amino}phenoxy) pyridine-2-carboxamide] | ≤ 500 |
| Cc1ccc(-c2cc(Nc3ccc(Oc4ccnc(C(N)=O)c4)cc3)nc(N)n2)cc1 [Example 267, 4-(4-{[2-amino-6-(4-methylphenyl)pyrimidin-4-yl]amino}phenoxy) pyridine-2-carboxamide] | ≤ 500 |
| Cc1cccc(-c2cc(Nc3ccc(Oc4ccnc(C(N)=O)c4)cc3)nc(N)n2)c1 [Example 268, 4-(4-{[2-amino-6-(3-methylphenyl)pyrimidin-4-yl]amino}phenoxy) pyridine-2-carboxamide] | ≤ 500 |
| NC(=O)c1cc(Oc2ccc(Nc3cc(-c4ccsc4)nc(N)n3)cc2)ccn1 [Example 269, 4-(4-{[2-amino-6-(3-thienyl)pyrimidin-4-yl]amino}phenoxy) pyridine-2-carboxamide] | ≤ 500 |
| Cc1ccc(-c2cc(Nc3ccc(Oc4ccnc(C(N)=O)c4)cc3)nc(N)n2)cc1N [Example 271, 4-(4-{[2-amino-6-(3-amino-4-methylphenyl)pyrimidin-4-yl]amino}phenoxy)pyridine-2-carboxamide] | ≤ 500 |
| CCOc1cccc(-c2cc(Nc3ccc(Oc4ccnc(C(N)=O)c4)cc3)nc(N)n2)c1 [Example 273, 4-(4-{[2-amino-6-(3-ethoxyphenyl)pyrimidin-4-yl]amino}phenoxy) pyridine-2-carboxamide] | ≤ 500 |
